The subject of one assay is human islets β-cells. Kind of assay: β-cell apoptosis (TUNEL) and necrosis (propidium iodide) in human islets. It counts as cell-based. As to conditions: 4 days. The method, then: Islet isolation and culture. Islets were isolated from pancreases of eleven organ donors at the Department of Surgery, University of Geneva Medical Center, as described (32-34). The islet purity was >95%, as judged by dithizone staining (if this degree of purity was not primarily achieved by routine isolation, islets were handpicked). […] For long-term in vitro studies, the islets were cultured on extracellular matrix-coated plates derived from bovine corneal endothelial cells (Novamed Ltd., Jerusalem, Israel), allowing the cells to attach to the dishes and spread, preserving their functional integrity (7;35). Islets were cultured in CMRL 1066 medium containing 100 U/ml penicillin, 100 μg/ml streptomycin and 10% fetal calf serum (Gibco, Gaithersburg, Md.), hereinafter referred to as culture medium. Two days after plating, when most islets were attached and began to flatten, the medium was changed to culture medium containing 5.5, 11.1 or 33.3 mM glucose. In some experiments, islets were additionally cultured with 2 ng/ml recombinant human IL-1β, 1000 U/ml recombinant human IFNγ (ReproTech EC Ltd, London, UK), 500 ng/ml IL-1β receptor antagonist (IL-1Ra) (R&D Systems Inc., Minneapolis, Minn.), 1 ng/ml membrane bound Fas-ligand (FasL) (36) (upstate biotechnology, Lake Placid, N.Y.) or with 100 μM pyrrolidinedithiocarbamate (PDTC; Sigma; 2 h per 2 d of culture).
β-cell apoptosis. The free 3-OH strand breaks resulting from DNA degradation were detected by the terminal deoxynucleotidyl transferase-mediated dUTP nick-end labeling (TUNEL) technique (38). After washing with PBS, cultured islets were fixed in 4% paraformaldehyde (30 min, room temperature) followed by permeabilisation with 0.5% triton X-100 (4 min, room temperature). The TUNEL assay was performed according to the manufacturer's instructions (In Situ Cell Death Detection Kit, AP; Boehringer Mannheim, Germany). […] The samples were immediately evaluated by fluorescence microscopy for positively stained […] nuclei.

For a further assay, the system named is IL-1β. Nature of the assay: IL-1β release and expression in human islets exposed to leptin. It counts as cell-based. The method, then:
Islet isolation and cell culture. Islets were isolated from pancreases of ten organ donors at the Department of Surgery, University of Geneva Medical Center, as described (32-34). The islet purity was >95%, as judged by dithizone staining (if this degree of purity was not primarily achieved by routine isolation, islets were handpicked). […] For long-term in vitro studies, the islets were cultured on extracellular matrix-coated plates derived from bovine corneal endothelial cells (Novamed Ltd., Jerusalem, Israel), allowing the cells to attach to the dishes and spread, preserving their functional integrity (7;35). Islets were cultured in CMRL 1066 medium containing 100 U/ml penicillin, 100 μg/ml streptomycin and 10% fetal calf serum (Invitrogen Corporation, Paisley, U.K.), hereafter referred to as culture medium. Two days after plating, when most islets were attached and began to flatten, the medium was changed to culture medium containing 5.5, 11.1 or 33.3 mM glucose. In some experiments, islets were additionally cultured with 5, 10 or 500 nM rh leptin (PeproTech, London, UK), 500 ng/ml rh IL-1Ra (R&D Systems Inc., Minneapolis, Minn.) or 50 nM small interfering RNA (siRNA) as described below.
Detection of IL-1Ra and IL-1β expressing cells. Pancreases from routine necropsies were immersion-fixed in formalin, followed by paraffin embedding. In parallel, isolated human were cultured in a suspension for 48 hours and exposed to 10 nM leptin or 33.3 mM glucose, islets were fixed in Bouin solution for 15 min, resuspended in 40 μl of 2% melted agarose in PBS (40° C.), followed by rapid centrifugation and paraffin embedding. Sections were deparaffinized, rehydrated and then incubated in methanol for 4 min. Human islets cultured on extracellular matrix for 4 days were washed in PBS, fixed in 4% paraformaldehyde (30 min, room temperature) followed by permeabilization with 0.5% triton X-100 (4 min, room temperature). Pancreas and islet sections and cultured cells were double-labeled for IL-1Ra or IL-1β and insulin, CD68, glucagon or somatostatin by 1 h of exposure to 10% bovine serum albumin followed by incubation (1 h, 37° C.) with biotinylated goat anti-IL-1Ra or mouse anti-IL-1β antibodies (R&D Systems Inc.). […]
RNA extraction and RT-PCR. […] PCR conditions were: denaturation for 30 seconds at 94° C., annealing for 30 seconds at 60° C., and elongation for 30 seconds at 72° C., followed for real time PCR by quantification for 5 seconds at 82° C.; repetition for 40 cycles. […] For quantitative analysis, we used the LightCycler quantitative PCR system (Roche) and performed quantitative PCR with a commercial kit (LightCycler-DNA Master SYBR Green I; Roche). […]

Take “Interleukin 1 receptor antagonist [IL-1Ra]”: the “baseline apoptosis (TUNEL-positive β-cells)” value in the assay with human islets β-cells (5.5 mM glucose) is “did not significantly change baseline apoptosis”. Moreover, in the assay on human islets β-cells (33.3 mM glucose, with IL-1Ra 500 ng/ml or PDTC 100 μM), the “glucose-induced β-cell apoptosis / DNA fragmentation (TUNEL)” value is given as “protected the β-cells from apoptosis”.
On to “leptin: rh leptin (PeproTech); protein encoded by the ob gene”, for which the “IL-1β expression in β-cells (triple immunostaining)” value with IL-1β (10 nM leptin, 48 hours) was “induced IL-1β expression in TUNEL-positive β-cells”. The “IL-1β RNA expression of islets (quantitative RT-PCR)” value in the assay with IL-1β (leptin) is listed as “not significantly changed”. Also, the “IL-1β release into culture medium” value in the assay with IL-1β (leptin, 15 hours) is recorded as “increased IL-1β release”; in the assay on IL-1β (leptin, 48 hours), “remained increased”.

These data come from patent US7572770B2, “Use of an interleukin 1 receptor antagonist and/or pyrrolidinedithiocarbamate for the treatment or prophylaxis of type 2 diabetes” (University of Zurich, priority 2002, dated 2009).
